Molecular target: T1, recombinant human Flag-tagged PARP7 (amino acids 456-657) (Homo sapiens, UniProt Q7Z3E1)
T1 construct: recombinant human Flag-tagged PARP7 (amino acids 456-657)
T1 sequence (Q7Z3E1 456-657): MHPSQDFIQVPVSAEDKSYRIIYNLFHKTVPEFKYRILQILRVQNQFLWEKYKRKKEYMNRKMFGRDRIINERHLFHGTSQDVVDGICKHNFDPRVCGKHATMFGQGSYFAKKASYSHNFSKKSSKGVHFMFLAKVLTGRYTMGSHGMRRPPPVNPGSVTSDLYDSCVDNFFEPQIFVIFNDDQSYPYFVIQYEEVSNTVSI
Assay: PARP7 biochemical DELFIA assay (auto-MARylation)
Conditions: DELFIA readout, IC50 class
Description: A suitable assay may be conducted using 10-30 nM PARP7 (amino acids 456-657), 2 μM biotin-NAD assay solution in 20 mM HEPES (pH 7.5), 100 mM NaCl, 2 mM DTT, 0.1% BSA (w/v), 0.02% Tween (v/v) assay buffer. MARylation may take place for 2-3 h at room temperature and may be detected using a dissociation-enhanced lanthanide fluorescence immunoassay (DELFIA) readout. This assay format has been recently utilised for screening for modulators of PARP7 and other MonoPARP enzymes ([…]. et al. Forced Self-Modification Assays as a Strategy to Screen MonoPARP Enzymes. SLAS Discovery. 25; 241-252, (2020)). A particularly suitable assay is described in the Examples below. Optiplate HB 384-well plates were coated with anti-FLAG antibody, supplied as a 4 mg/ml solution, using a Na2CO3/HCO3 coating buffer at pH 9.6, overnight at 4° C., in order to achieve a final immobilisation per well of 0.3 μg. Wells were then washed 3× in coating wash buffer (PBS/0.05% Tween (v/v)), blocked with 2% BSA (w/v) in coating wash buffer and washed 3 further times prior to assay. For the assay 20 μl of 12.5-37.5 nM recombinant human Flag-tagged PARP7 (amino acids 456-657) was added to each well of the 384-well plate for 30 min at room temperature. 50 nl of test compound in DMSO was added using pintool technology and plates were incubated for a further 30 min at room temperature. 5 μl of 15 μM biotin-NAD^+ assay solution in 20 mM HEPES (pH 7.5), 100 mM NaCl, 2 mM DTT, 0.1% BSA (w/v), 0.02% Tween (v/v) assay buffer was then added and MARylation proceeded for 2-3 h at room temperature prior to the addition of 5 μl of 12 mM NAD^+ quenching solution. After 30 min at room temperature, assay solution was removed and following washing 5 times, 100 μl of a 1:1000 dilution of DELFIA Eu-N1 Streptavidin reagent was added. Plates were then incubated for 30 min at room temperature. Reaction mixture was removed and plates washed 5 times prior to the addition of 25 μl DELFIA enhancement solution. Following incubation for 30 min at room temperature, fluorescence was read on either an Envision or Pherastar FS (Ex337 nm, Em620 nm).

SMILES: Cc1nn(CCOCCC(=O)N2CCN(c3ncc(C(F)(F)F)cn3)C(C)C2)c2cn[nH]c(=O)c12 (single isomer, unassigned) [Compound 255]
- IC50: ≤ 100 nM

SMILES: CC(COCCC(=O)N1CCN(c2ncc(C(F)(F)F)s2)CC1)n1nc(C(F)(F)F)c2c(=O)[nH]ncc21 (single isomer, unassigned) [Compound 258]
- IC50: ≤ 100 nM

SMILES: Cc1nn(C(C)COCCC(=O)N2CCN(c3ncc(C#N)cn3)CC2)c2cn[nH]c(=O)c12 (single isomer, unassigned) [Compound 262]
- IC50: ≤ 100 nM

SMILES: Cc1nn(C(C)COCCC(=O)N2CCN(c3ncc(C#N)cn3)CC2)c2cn[nH]c(=O)c12 (single isomer, unassigned) [Compound 263]
- IC50: ≤ 100 nM

SMILES: CC(COCCC(=O)N1CCN(c2cnc(C(F)(F)F)cn2)CC1)n1nc(C(F)(F)F)c2c(=O)[nH]ncc21 (single isomer, unassigned) [Compound 266]
- IC50: ≤ 100 nM

SMILES: CC(COCCC(=O)N1CCN(c2ccc(C#N)cn2)CC1)n1nc(C(F)(F)F)c2c(=O)[nH]ncc21 (single isomer, unassigned) [Compound 270]
- IC50: ≤ 100 nM

SMILES: CC(COCCC(=O)N1CCN(c2ccc(OC(F)F)cn2)CC1)n1nc(C(F)(F)F)c2c(=O)[nH]ncc21 (single isomer, unassigned) [Compound 274]
- IC50: ≤ 100 nM

SMILES: CC(COCCC(=O)N1CCN(c2ccc(C3CC3)cn2)CC1)n1nc(C(F)(F)F)c2c(=O)[nH]ncc21 (single isomer, unassigned) [Compound 279]
- IC50: ≤ 100 nM

SMILES: CC(COCCC(=O)N1CCN(c2ncc(C3CC3)cn2)CC1)n1nc(C(F)(F)F)c2c(=O)[nH]ncc21 (single isomer, unassigned) [Compound 280]
- IC50: ≤ 100 nM

SMILES: CC(COCCC(=O)N1CCN(c2ncc(C3CC3)cn2)CC1)n1nc(C(F)(F)F)c2c(=O)[nH]ncc21 (single isomer, unassigned) [Compound 281]
- IC50: ≤ 100 nM

SMILES: CC(COCCC(=O)N1CCN(c2ncc(C#N)s2)CC1)n1nc(C(F)(F)F)c2c(=O)[nH]ncc21 (single isomer, unassigned) [Compound 284]
- IC50: ≤ 100 nM

SMILES: CC(COCCC(=O)N1CCN(c2ncc(C3COC3)cn2)CC1)n1nc(C(F)(F)F)c2c(=O)[nH]ncc21 (single isomer, unassigned) [Compound 289]
- IC50: ≤ 100 nM

SMILES: CC(COCCC(=O)N1CCN(c2nnc(C(F)(F)F)s2)CC1)n1nc(C(F)(F)F)c2c(=O)[nH]ncc21 (single isomer, unassigned) [Compound 291]
- IC50: 100 to 1000 nM

SMILES: CC(COCCC(=O)N1CCN(c2ncc(OC(F)F)cn2)CC1)n1nc(C(F)(F)F)c2c(=O)[nH]ncc21 (single isomer, unassigned) [Compound 294]
- IC50: ≤ 100 nM

SMILES: CNC(=O)c1ccc(N2CCN(C(=O)CCOCC(C)n3nc(C(F)(F)F)c4c(=O)[nH]ncc43)CC2)nc1 (single isomer, unassigned) [Compound 305]
- IC50: ≤ 100 nM

SMILES: COc1ccc(N2CCN(C(=O)CCOCC(C)n3nc(C(F)(F)F)c4c(=O)[nH]ncc43)CC2)nc1 (single isomer, unassigned) [Compound 306]
- IC50: ≤ 100 nM

SMILES: CC(COCCC(=O)N1CCN(c2ccc(C3COC3)cn2)CC1)n1nc(C(F)(F)F)c2c(=O)[nH]ncc21 (single isomer, unassigned) [Compound 310]
- IC50: ≤ 100 nM

SMILES: CC(COCCC(=O)N1CCN(c2ccc(C3COC3)cn2)CC1)n1nc(C(F)(F)F)c2c(=O)[nH]ncc21 (single isomer, unassigned) [Compound 311]
- IC50: 100 to 1000 nM

SMILES: CC(COCCC(=O)N1CCN(c2nc(C#N)co2)CC1)n1nc(C(F)(F)F)c2c(=O)[nH]ncc21 (single isomer, unassigned) [Compound 318]
- IC50: 100 to 1000 nM

SMILES: CC(COCCC(=O)N1CCN(c2nc(C#N)co2)CC1)n1nc(C(F)(F)F)c2c(=O)[nH]ncc21 (single isomer, unassigned) [Compound 319]
- IC50: ≤ 100 nM

SMILES: CC(COCCC(=O)N1CCN(c2ncc(C#N)cn2)CC1)n1nc(C(F)(F)F)c2c(=O)[nH]ncc21 (single isomer, unassigned) [Compound 321, 2-(4-(3-(2-(4-oxo-3-(trifluoromethyl)-4,5-dihydro-1H-pyrazolo[3,4-d]pyridazin-1-yl)propoxy)propanoyl)piperazin-1-yl) pyrimidine-5-carbonitrile]
- IC50: ≤ 100 nM

SMILES: CC(COCCC(=O)N1CCN(c2ncc(C#N)cn2)CC1)n1nc(C(F)(F)F)c2c(=O)[nH]ncc21 (single isomer, unassigned) [Compound 322, 2-(4-(3-(2-(4-oxo-3-(trifluoromethyl)-4,5-dihydro-1H-pyrazolo[3,4-d]pyridazin-1-yl)propoxy)propanoyl)piperazin-1-yl) pyrimidine-5-carbonitrile]
- IC50: ≤ 100 nM

SMILES: CC(COCCC(=O)N1CCN(c2cnc(C(F)F)cn2)CC1)n1nc(C(F)(F)F)c2c(=O)[nH]ncc21 (single isomer, unassigned) [Compound 323]
- IC50: ≤ 100 nM

SMILES: CC(COCCC(=O)N1CCN(c2cnc(C(F)F)cn2)CC1)n1nc(C(F)(F)F)c2c(=O)[nH]ncc21 (single isomer, unassigned) [Compound 324]
- IC50: ≤ 100 nM

SMILES: CNC(=O)c1cnc(N2CCN(C(=O)CCOCC(C)n3nc(C(F)(F)F)c4c(=O)[nH]ncc43)CC2)nc1 (single isomer, unassigned) [Compound 326]
- IC50: ≤ 100 nM

SMILES: CC(CCOCC(=O)N1CCN(c2ncc(C(F)(F)F)cn2)CC1)n1nc(C(F)(F)F)c2c(=O)[nH]ncc21 (single isomer, unassigned) [Compound 327, 1-(4-(2-oxo-2-(4-(5-(trifluoromethyl)pyrimidin-2-yl)piperazin-1-yl)ethoxy)butan-2-yl)-3-(trifluoromethyl)-1,5-dihydro-4H-pyrazolo[3,4-d]pyridazin-4-one]
- IC50: ≤ 100 nM

SMILES: CC(CCOCC(=O)N1CCN(c2ncc(C(F)(F)F)cn2)CC1)n1nc(C(F)(F)F)c2c(=O)[nH]ncc21 (single isomer, unassigned) [Compound 328, 1-(4-(2-oxo-2-(4-(5-(trifluoromethyl)pyrimidin-2-yl)piperazin-1-yl)ethoxy)butan-2-yl)-3-(trifluoromethyl)-1,5-dihydro-4H-pyrazolo[3,4-d]pyridazin-4-one]
- IC50: ≤ 100 nM

SMILES: COc1cnc(N2CCN(C(=O)CCOCC(C)n3nc(C(F)(F)F)c4c(=O)[nH]ncc43)CC2)nc1 (single isomer, unassigned) [Compound 331]
- IC50: ≤ 100 nM

SMILES: COc1cnc(N2CCN(C(=O)CCOCC(C)n3nc(C(F)(F)F)c4c(=O)[nH]ncc43)CC2)nc1 (single isomer, unassigned) [Compound 332]
- IC50: ≤ 100 nM

SMILES: Cc1nn(C(C)COCCC(=O)N2CCN(c3ncc(Cl)cn3)CC2)c2cn[nH]c(=O)c12 (single isomer, unassigned) [Compound 335]
- IC50: ≤ 100 nM

SMILES: CCC(COCCC(=O)N1CCN(c2ncc(C(F)(F)F)cn2)CC1)n1cc(C(F)(F)F)c2c(=O)[nH]ncc21 (single isomer, unassigned) [Compound 338]
- IC50: ≤ 100 nM

SMILES: CCC(COCCC(=O)N1CCN(c2ncc(C(F)(F)F)cn2)CC1)n1cc(C(F)(F)F)c2c(=O)[nH]ncc21 (single isomer, unassigned) [Compound 339]
- IC50: ≤ 100 nM

SMILES: CC(COCCC(=O)N1CCN(c2noc(C(F)(F)F)n2)CC1)n1nc(C(F)(F)F)c2c(=O)[nH]ncc21 (single isomer, unassigned) [Compound 344]
- IC50: ≤ 100 nM

SMILES: CC(COCCC(=O)N1CCN(c2ncc(F)cc2F)CC1)n1nc(C(F)(F)F)c2c(=O)[nH]ncc21 (single isomer, unassigned) [Compound 350]
- IC50: ≤ 100 nM

SMILES: CC(COCCC(=O)N1CCN(c2ncccc2Cl)CC1)n1nc(C(F)(F)F)c2c(=O)[nH]ncc21 (single isomer, unassigned) [Compound 356]
- IC50: 100 to 1000 nM

SMILES: Cc1c(C)n(C(C)COCCC(=O)N2CCN(c3ncc(C(F)(F)F)cn3)CC2)c2cn[nH]c(=O)c12 (single isomer, unassigned) [Compound 365]
- IC50: ≤ 100 nM

SMILES: Cc1c(C)n(C(C)COCCC(=O)N2CCN(c3ncc(C(F)(F)F)cn3)CC2)c2cn[nH]c(=O)c12 (single isomer, unassigned) [Compound 366]
- IC50: ≤ 100 nM

SMILES: CC(COCCC(=O)N1CCN(c2ncccc2F)CC1)n1nc(C(F)(F)F)c2c(=O)[nH]ncc21 (single isomer, unassigned) [Compound 368]
- IC50: 100 to 1000 nM

SMILES: CC1CN(c2ncc(C(F)(F)F)cn2)CCN1C(=O)CCOCCn1cc(C(F)(F)F)c2c(=O)[nH]ncc21 (single isomer, unassigned) [Compound 370]
- IC50: ≤ 100 nM
